From patent publication US20250177533A1, “PHOTODYNAMIC THERAPY AND DIAGNOSIS” (RMW CHO Group Limited, priority 2021, published 2025)
Like-named read-outs stand apart in the source and are kept apart here.

What was measured:
[1] = test system: Human ovarian cancer cell line SKOV3; test: Phototoxicity in SKOV3 cells (660 nm laser or LED, AlamarBlue viability); assay type: cell-based; settings: Homo sapiens, SK-OV-3, light or radiation study, SKOV3, 24 h uptake, viability 24 h later
Text: All data are shown as mean±SD (where appropriate).
Media was then replaced with fresh media containing AlamarBlue, and % viable cells remaining assessed as above. […] All measurements were made in quadruplicate.

[2] = test system: Human ovarian cancer cell line SKOV3; settings: 24 h
Experimental: Serial dilutions were prepared in cell culture media (Dulbecco's Modified Eagle Medium/Nutrient Mixture F-12 (DMEM/F-12)) supplemented with 10% v/v Fetal Bovine Serum, 100 U/mL penicillin, 100 μg/mL streptomycin and the same excipient solution at a constant 1:55 dilution.
Human ovarian cancer cell line SKOV3 (ATCC #HTB-77) was maintained in Dulbecco's Modified Eagle Medium/Nutrient Mixture F-12 (DMEM/F-12), supplemented with 10% v/v Fetal Bovine Serum, 100 U/mL penicillin and 100 μg/mL streptomycin. Monolayer cultures were grown in a humidified incubator at 37° C. with 5% CO2. Once cells had reached ˜80% confluence, spent media was replaced with media containing photosensitizer at the required concentration and cells were incubated for the desired period of time to allow photosensitizer uptake.
Spectral absorbance and viability measurements were normalized in the range 0-100%, with a minimum of 0 and a maximum value determined from the dataset. Dose response was determined using a sigmoidal four-point non-linear regression with variable slope, and IC10 or IC90 calculated for each compound. All data are shown as mean±SD (where appropriate).
On reaching ˜60% confluence, media was aspirated and replaced with fresh media containing the relevant phyllochlorin analogue from 0-100 μM in DMSO.
Untreated cells were used as a control. […] All measurements were made in quadruplicate.
The phototoxicity and inherent cytotoxicity (i.e. “dark toxicity”) of phyllochlorin analogues were assessed as previously using SKOV3 ovarian cancer cells. For comparative purposes, phyllochlorin analogues were compared against chlorin e4 disodium and Talaporfin sodium, a clinically approved photosensitizer used in the photodynamic treatment of lung cancers.

[3] = 660 nm laser 50 mW/cm^2 for 5 mins (15 J/cm^2), read-out: Phototoxicity μM (IC90)
[4] = 660 nm LED panel 50 mW/cm^2 for 5 mins (15 J/cm^2), read-out: Phototoxicity μM (IC90), measured by LED

| SMILES | IC90 [1, 3] [µM] | Dark toxicity μM (IC10) [2] [µM] | IC90 [1, 4] [µM] |
| --- | --- | --- | --- |
| CCC1=C(C)c2cc3[nH]c(cc4nc(c(C)c5cc(C)c(cc1n2)[nH]5)[C@@H](CCC(=O)O)[C@@H]4C)c(C)c3C(C)O (stereo partly shown) [Compound 27, phyllochlorin 13-(ethyl-1-alcohol)] | 0.397 | 10.520 |  |
| CCC1=C(C)c2cc3[nH]c(cc4nc(c(C)c5cc(C)c(cc1n2)[nH]5)[C@@H](CCC(=O)OC)[C@@H]4C)c(C)c3C(C)OCCC[n+]1ccc(C)cc1 (stereo partly shown) [Compound 28] | 0.003 | 4.877 |  |
| CCC1=C(C)c2cc3[nH]c(cc4nc(c(C)c5cc(C)c(cc1n2)[nH]5)[C@@H](CCC(=O)OC)[C@@H]4C)c(C)c3COC(=O)NCCOC [Compound 29, phyllochlorin methyl ester 13-(2-methoxyethyl)carbamate] |  | 30.000 | 0.0867 |
| CCC1=C(C)c2cc3[nH]c(cc4nc(c(C)c5cc(C)c(cc1n2)[nH]5)[C@@H](CCC(=O)OC)[C@@H]4C)c(C)c3C=O [Compound 30, phyllochlorin 13-formyl methyl ester] | 2.27 | 45.760 |  |
| CCC1=C(C)c2cc3[nH]c(cc4nc(c(C)c5cc(C)c(cc1n2)[nH]5)[C@@H](CCCO)[C@@H]4C)c(C)c3CO [Compound 32, phyllochlorin 13-hydroxymethyl-3-hydroxypropyl] | 0.0724 | 30.850 |  |
| CCC1=C(C)c2cc3[nH]c(cc4nc(c(C)c5cc(C)c(cc1n2)[nH]5)[C@@H](CCCO[C@@H]1O[C@H](CO)[C@@H](O)[C@H](O)[C@H]1O)[C@@H]4C)c(C)c3CO[C@@H]1O[C@H](CO)[C@@H](O)[C@H](O)[C@H]1O [Compound 33, phyllochlorin 13-hydroxymethyl-3-hydroxypropyl-bis-β-D-glucoside ether] | 0.765 | 14.080 |  |
| CCC1=C(C)c2cc3[nH]c(cc4nc(c(C)c5cc(C)c(cc1n2)[nH]5)[C@@H](CCCO)[C@@H]4C)c(C)c3CO[C@@H]1O[C@H](CO)[C@@H](O)[C@H](O)[C@H]1O [Compound 35, phyllochlorin 3-hydroxypropyl-13-hydroxymethyl-β-D-glucoside ether] | 0.0467 | 1.651 |  |
| CCC1=C(C)c2cc3[nH]c(cc4nc(c(C)c5cc(C)c(cc1n2)[nH]5)[C@@H](CCC(=O)OC)[C@@H]4C)c(C)c3COC(=O)NCCCCCC[P+](c1ccccc1)(c1ccccc1)c1ccccc1 [Compound 39, phyllochlorin methyl ester 13-(6-(triphenylphosphonium bromide)hexyl)carbamate] |  | 6.403 | 0.0018 |
| CCC1=C(C)c2cc3[nH]c(cc4nc(c(C)c5cc(C)c(cc1n2)[nH]5)[C@@H](CCC(=O)N(C)CCOCCOCCOC)[C@@H]4C)c(C)c3CO [Compound 42, phyllochlorin 13-hydroxymethyl N-methyl-N-3,6,9-trioxadecyl propylamide] |  | 4.252 | 0.245 |
| CCC1=C(C)c2cc3[nH]c(cc4nc(c(C)c5cc(C)c(cc1n2)[nH]5)[C@@H](CCC(=O)N(C)CCOCCOCCOC)[C@@H]4C)c(C)c3COC(=O)NCCCCCC[P+](c1ccccc1)(c1ccccc1)c1ccccc1 [Compound 43, phyllochlorin 13-(6-(triphenylphosphonium bromide)hexyl)carbamate N-methyl-N-3,6,9-trioxadecyl propylamide] |  | 0.5889 | 0.0042 |
| CCC1=C(C)c2cc3[nH]c(cc4nc(c(C)c5cc(C)c(cc1n2)[nH]5)[C@@H](CCC(=O)OC)[C@@H]4C)c(C)c3COC(=O)NCC[P+](c1ccccc1)(c1ccccc1)c1ccccc1 [Compound 46, phyllochlorin methyl ester 13-(N-(2-triphenylphosphoniumethyl)bromide)carbamate] |  | 1.277 | 0.0014 |
